Measurements: US20150352100A1, “USE OF SELECTIVE DELTA-OPIOID RECEPTOR ANTAGONISTS AND SPECIFIC SENSORY RECEPTOR LIGANDS” (priority 2013, published 2015)
“Also recorded” adds a separate entry of the source.

Legend:
TAS2R14 [1] = experiment: Calcium imaging (Fluo4-AM) of keratinocytes with TAS2R14 ligands; format: cell-based, human; details: for effect of blocker on calcium responses to thujone and FFA: human skin cells, suramin 100 μM; for calcium response: in the presence of 100 μM suramin, 1 mM thujone, FFA in N/TERT cells, n=4; for effect of blocker on calcium response to thujone: keratinocytes
Protocol: (§1) Maximal increases in fluorescence were generated in each recording by addition of the ionophore ionomycin at 1 μM, and calcium responses were calculated as percentages compared to maximal ionomycin signal.

[2] = tested on: primary human cultured fibroblasts; experiment: In-vitro wound scratch model, wound closure/migration; format: cell-based; details: for scratch wound closure after 24 h, remaining gap: FIG. 16b, all opioid antagonists 100 nM, compared to control without any antagonist; for wound closure/migration, gap closure after 24 h: FIG. 16a, compared to control cells in DMSO diluent
Protocol: All opioid antagonists were used in a concentration of 100 nM.
The stimulation of wound closure in fibroblasts by TGF-beta1 is not surprising. However, the stimulation by the DOR-Antagonist Naltrindole was not expected. In an additional experiment we tested the effect of various specific opioid receptor antagonists on the wound closure/migration of human primary fibroblasts using the in-vitro wound scratch assay.

TAS2R14 [3] = molecular target: T1, TAS2R14 (Homo sapiens, UniProt Q9NYV8); experiment: Calcium imaging (Fluo4-AM) of keratinocytes with TAS2R14 ligands; format: cell-based; details: for intracellular free calcium (fluorescence of fluo4): bath-application of 1 mM, primary keratinocytes and N/TERT cells
T1 construct: This has allowed functional studies of TAS2R14 to be carried out in a native setting; endogenous in cells; host or cells: human primary keratinocytes and N/TERT immortalised human keratinocytes
T1 sequence (Q9NYV8 1-317): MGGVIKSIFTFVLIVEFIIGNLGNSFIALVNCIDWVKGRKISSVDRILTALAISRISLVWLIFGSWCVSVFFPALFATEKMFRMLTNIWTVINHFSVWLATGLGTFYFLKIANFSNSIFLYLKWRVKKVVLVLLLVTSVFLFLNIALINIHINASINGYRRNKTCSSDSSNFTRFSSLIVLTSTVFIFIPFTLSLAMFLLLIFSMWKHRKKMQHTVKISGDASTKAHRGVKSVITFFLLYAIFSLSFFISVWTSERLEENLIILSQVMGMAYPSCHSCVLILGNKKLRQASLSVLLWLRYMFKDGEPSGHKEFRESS
Protocol: as §1

[4] = tested on: 6 mm punch wounds on the back of mice; experiment: In vivo wound healing, 6 mm punch wounds, topical cream; details: 1% w/w cream on wounds twice every day; for wound healing (mean healing rate, macroscopic and microscopic): 10 mice per group, vs placebo
Protocol: The effects of selective DOR antagonist are tested in animal models of wound healing, preferably in mice, to determine whether a selective DOR antagonist improves the quality, rate or extent of wound healing.
In the present example, male mice of 3-4 months old were grouped into 5 groups and 10 in each group. Before experiment, mice are shaved one day before. Pentothal was used for anesthesia before experiments. Seven days experiments are used. Four wounds are made by cutting 6 mm diameter and 3 cm apart. Day 1 wound #1 for 7 day wound, Day 3 wound #2 for 5 day wound, Day 5 wound #3 for 3 day wound, Day 7 wound #4 for 1 day wound, Day 8 mice are sacrifice. […] At the end of experiments on Day 8, the biopsies will be taken from the mice and fixed in 4% formaldehyde and embedded in paraffin block.

DOR protein expression = experiment: Western blot analysis of DOR protein expression in cultured human skin cells; format: cell-based
Source text: B: Protein Expression of DOR by Western Blot Analysis: […]

[5] = tested on: Erk phosphorylation (ERK1/2); experiment: pERK activation protocol (western blot, anti-phospho ERK1/2) in primary keratinocytes; format: cell-based, human
Protocol: Primary keratinocytes were grown to 70% and replaced with supplement free medium 16-24 hours before the experiments. The strongly stimulating supplement (25 mg/l bovine pituitary extract and 2.5 ug/l epidermal growth factor, EGF) in complete KFSM (Gibco) medium was used as positive control. Cells were exposed to SNC 80 for 15 min, DMSO (blank control) 15 min, or FCS/complete K-SFM for 30 min at 37° C. […] Cells were lysed in 100 μl RIPA buffer and cell lysates frozen in liquid nitrogen.
Equal amount of protein were separated by electrophoresis over 10% polyacrylamid gels followed by protein transfer onto nitrocellulose membrane. Blots were transferred to primary antibody solution (anti-phospho ERK1/2 in 5% BSA/TBS-T) and incubated at 4° C. over night. After appropriate washing in TBS-T blots were incubated in secondary antibody (anti-rabbit Alexa-680 in 5% milk/TBS-T) for 45 min at room temperature in dark. Blots were washed 3× in TBS-T protected from light. Blots were imaged with the IR imager in 700 nm channel in a scan at 169 μm resolution.

DOR-mRNA expression = experiment: Semiquantification of DOR mRNA by real time PCR in cultured human primary skin cells; format: cell-based
Source text: A: Semiquantification of DOR mRNA by Real Time PCR
It is important to mention, that human cultured melanocytes and keratinocytes express more MOR than DOR mRNA. However, fibroblasts express more DOR than MOR mRNA.

[6] = human cultured fibroblasts, 24 h exposure
[7] = human cultured melanocytes, 6 h exposure
[8] = primary human cultured keratinocytes
[9] = cultured human primary keratinocytes

## Cc1ccc(C(=O)Nc2ccc(S(=O)(=O)O)c3cc(S(=O)(=O)O)cc(S(=O)(=O)O)c23)cc1NC(=O)c1cccc(NC(=O)Nc2cccc(C(=O)Nc3cc(C(=O)Nc4ccc(S(=O)(=O)O)c5cc(S(=O)(=O)O)cc(S(=O)(=O)O)c45)ccc3C)c2)c1 [suramin]
TAS2R14 [1]
  effect of blocker on calcium responses to thujone and FFA: significantly attenuated
TAS2R14 [1]; listed as Suramin
  effect of blocker on calcium responses to thujone and FFA: attenuates significantly

## COc1cccc2c1[C@]13CCN(CC4CC4)[C@H](C2)[C@]1(OC)CCC(=O)C3 [Cyprodime]
[2]
  scratch wound closure after 24 h, remaining gap: no significant effects

## O=C(O)c1ccccc1Nc1cccc(C(F)(F)F)c1 [FFA, flufenamic acid]
TAS2R14 [3]
  intracellular free calcium (fluorescence of fluo4): robust increases in intracellular free calcium
TAS2R14 [1]
  calcium response: 31.0±7.0 percentage of ionomycin signal

## CC(C)[C@]12CC(=O)[C@H](C)[C@H]1C2 [thujone, α-thujone]
TAS2R14 [3]
  intracellular free calcium (fluorescence of fluo4): robust increases in intracellular free calcium
TAS2R14 [3]; control without suramin, 1 mM thujone, FFA in N/TERT cells, n=4
  calcium response: 84.2±5.5 percentage of ionomycin signal
TAS2R14 [1]
  calcium response: 34.4±8.2 percentage of ionomycin signal

## TGFβ1: known stimulator of wound closure/migration
[2]
  wound closure/migration, gap closure after 24 h: significant improvement of wound closure/migration
[2]; listed as TGF-beta1
  wound closure/migration, gap closure after 24 h: significant faster migration and wound closure

## Oc1ccc2c3c1O[C@H]1c4[nH]c5ccccc5c4C[C@@]4(O)[C@@H](C2)N(CC2CC2)CC[C@]314 [Naltrindole, naltrindole]
[4]
  wound healing (mean healing rate, macroscopic and microscopic): significantly improved wound healing at days 5 and 7
[4]; listed as Naltrindol
  wound healing (mean healing rate, macroscopic and microscopic): significant better healing
[4]; compared to placebo
  improvement of wound healing: 3 days
DOR protein expression; [6]
  DOR protein expression: important upregulation
DOR protein expression; [7]
  DOR protein expression: important up-regulation; also recorded: upregulates
DOR protein expression; human cultured melanocytes, combination of antagonist Naltrindole and agonist SNC-80
  DOR protein expression: can upregulate the protein as well; also recorded: can up-regulate the protein as well
DOR protein expression; [8]
  DOR protein expression: important up-regulation; also recorded: up-regulates
[2]
  wound closure/migration, gap closure after 24 h: significant faster migration and wound closure; also recorded: significant improvement of wound closure/migration
[5]; MAP kinase activation assay for selecting DOR antagonists
  concentration that promotes phosphorylation of MAP kinase such as Erk: less than or equal to 10 μM
[5]; primary human keratinocytes
  Erk phosphorylation (MAPK pathway ERK1/2): strong stimulating effect; also recorded: massive activation of Erk
DOR-mRNA expression; cultured human primary fibroblasts
  DOR-mRNA expression: increases significantly
DOR-mRNA expression; [9]
  DOR-mRNA expression: increases significantly
DOR-mRNA expression; cultured human primary melanocytes
  DOR-mRNA expression: increases significantly
DOR-mRNA expression; cultured human primary melanocytes, co-incubation of Naltrindole and agonist SNC-80
  DOR-mRNA expression: increases significantly
DOR-mRNA expression; human keratinocytes and melanocytes pre-incubated for 3 hours with 10 μM Naltrindole, then exposed to SNC-80
  mRNA of DOR: massively up-regulated

## COC(=O)/C=C/C(=O)N[C@@H]1CC[C@@]2(O)[C@H]3Cc4ccc(O)c5c4[C@@]2(CCN3CC2CC2)[C@H]1O5 [irreversible blocker of MOR (>KOR>>DOR), beta-Funaltrexamine]
[2]
  scratch wound closure after 24 h, remaining gap: no significant effects

## Dalargin
[4]
  wound healing (mean healing rate, macroscopic and microscopic): very significant advantage of a specific DOR antagonist over

## C1CCC[C@H]2CCCN3CC[C@@H](CCCCCC[C@@H]4CCCN5CC[C@@H](CC1)O[C@@H]45)O[C@@H]23 [Xestospongin, Xestospongin C]
TAS2R14 [1]
  effect of blocker on calcium response to thujone: significantly attenuated; also recorded: highly significant inhibition

## Ryanodine
TAS2R14 [1]
  effect of blocker on calcium response to thujone: significantly attenuate

## O=C1CC[C@@]2(O)[C@H]3Cc4ccc(O)c5c4[C@@]2(CCN3CC2CC2)[C@H]1O5 [Naltrexone]
[4]
  wound healing (mean healing rate, macroscopic and microscopic): not effective

## Oc1ccc2c3c1O[C@H]1c4oc5ccccc5c4C[C@@]4(O)[C@@H](C2)N(CC2CC2)CC[C@]314 [Naltriben]
[2]
  scratch wound closure after 24 h, remaining gap: more effective than the mixed DOR1/2 antagonist Naltrindole and much more effective than the DOR1 antagonist BNTX

## C=CCN1C[C@H](C)N([C@H](c2ccc(C(=O)N(CC)CC)cc2)c2cccc(OC)c2)C[C@H]1C [SNC-80]
[4]
  wound healing (mean healing rate, macroscopic and microscopic): very significant advantage of a specific DOR antagonist over
DOR protein expression; [6]
  DOR protein expression: some up- and downregulation
DOR protein expression; [7]
  DOR protein expression: not
DOR protein expression; [8]
  DOR protein expression: important up-regulation; also recorded: up-regulates
[2]
  wound closure/migration, gap closure after 24 h: does not seem to have any stimulation of migration; also recorded: does not seem to change migration
[5]; primary human keratinocytes
  effect on Naltrindole-stimulated Erk phosphorylation: antagonized
DOR-mRNA expression; [9]
  DOR-mRNA expression: increases significantly

## O=C1CN(/N=C/c2ccc(-c3ccc([N+](=O)[O-])cc3)o2)C(O)=N1 [Dantrolene]
TAS2R14 [1]
  effect of blocker on calcium response to thujone: significantly attenuate
